#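 Compound exposure: 48 hours, 5 concentrations, 96-well plates. The concentration for 50% growth inhibition is given as GI50. The concentration for full growth arrest is given as TGI.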
# Tests used:
# Experiment in all cases: growth of human tumour cells (NCI), 48 h
# [1] = system: A498 renal
# [2] = system: HS 578T breast
# [3] = system: KM12 colon
# [4] = system: MDA-MB-435
# [5] = system: MOLT-4 leukemia
# [6] = system: OVCAR-4 ovarian
# [7] = system: SW-620 colon
SMILES,TGI [1] [µM],TGI [2] [µM],TGI [3] [µM],TGI [4] [µM],TGI [5] [µM],TGI [6] [µM],TGI [7] [µM],GI50 [1] [µM],GI50 [2] [µM],GI50 [3] [µM],GI50 [4] [µM],GI50 [5] [µM],GI50 [6] [µM],GI50 [7] [µM]
Cc1[nH]c2ccccc2c1-c1cc(-c2cc(-c3c(C)[nH]c4ccccc34)nc(N)n2)nc(N)n1,> 100,> 100,> 100,> 100,> 100,> 100,> 100,–,–,–,–,–,–,–
C=C1c2[nH]c3ccccc3c2C2C(CC)C1CCN2C (stereo unspecified),70,> 100,> 100,> 100,> 100,> 100,> 100,–,–,–,–,–,–,–
N#CC(C#N)N=Nc1ccc(Br)cc1,46.1,> 73.8,> 100,20,> 66.2,37.9,15.8,13.3,13.4,9.65,4.19,2.72,2,3.01
Nc1nc2cc3ccc(C4CC(O)C(CO)O4)cc3cc2c(=O)[nH]1 (stereo unspecified),> 100,> 100,–,> 100,> 100,> 100,> 100,26.8,> 100,–,> 100,> 100,> 100,> 100
C[C@@H]1Cc2c([nH]c3ccccc23)[C@@H](c2c(F)cc(NC3CN(CCCF)C3)cc2F)N1CC(F)(F)CO,8.82,19.1,18,15.1,20.6,21.9,13,1.64,3.73,4.21,3.89,3.91,9.86,3.28
O=Cc1ccc(-c2ccc(-c3nc4ccccc4o3)cc2)s1,–,–,> 100,77.9,> 100,> 100,> 100,–,–,30.3,24.1,21.6,34.9,71.2
CC(=O)O[C@@H]1[C@@H](O)C2=C3[C@]4(C)[C@@H]1C(C)(C)C(=O)C[C@@H]4[C@]3(O)[C@H](OC(C)=O)[C@@]1(C[C@@H]1C)C2=O,45.8,> 100,30.8,37.8,72.4,43.9,42.8,–,–,–,–,–,–,–
Cc1nc([C@H]2CC[C@H]3[C@@H]4CCC5=CC(=O)CC[C@]5(C)[C@H]4CC[C@]23C)cs1,> 100,> 100,> 100,> 100,> 100,> 100,> 100,> 53.3,> 66.1,4.72,5.02,2.25,3.02,7.66
COc1ccc(/C=C2\CC(C)CC3C2=NN(C(C)=O)C3c2ccc(OC)cc2)cc1 (stereo unspecified),33.1,60.6,46.5,49.1,50.1,36.5,59,17,22.1,16.9,19.9,16.1,12.2,21.8
Cc1nccc2c3ccc(OCc4cn(-c5ccc(Cl)cc5)nn4)cc3n(CCCc3ccccc3)c12,> 33.3,2.48,> 33.3,> 33.3,> 33.3,10.4,> 33.3,> 33.3,0.844,6.21,2,6.97,4.34,2.2
CCN1C2=NCCN2S(=O)(=O)c2ccccc21,> 100,> 100,> 100,> 100,> 100,> 100,> 100,–,–,–,–,–,–,–
CS(=O)(=O)CCNCc1ccc(-c2ccc3ncnc(Nc4ccc(OCc5cccc(F)c5)c(C(F)(F)F)c4)c3c2)o1,9.04,13.5,7.63,7.68,11.1,10.8,7.93,3.54,3.88,4.06,4.01,3.81,3.65,4.15
N#CSc1c[nH]c2ccc(/C=C/C(=O)/C=C(/C=C/c3ccc4[nH]cc(SC#N)c4c3)OB(F)F)cc12,12.3,> 100,4.82,3.25,1.62,3.11,1.16,3.24,1.36,1.02,1.44,0.306,0.344,0.333
COc1ccc(Cc2cc3c(cc2OCC(=O)O)OCO3)cc1,> 100,–,> 100,–,> 100,> 100,> 100,–,–,–,–,–,–,–
Cc1cc2cn3c4ccc(O)cc4[nH]c(=O)c3c2cc1C,1.43,–,0.553,0.0121,–,1.81,1.53,0.0319,–,0.0374,–,–,0.0675,0.0105
Fc1ccc(-c2ncn(C3CCNCC3)c2-c2ccnc(Oc3ccc(F)c(F)c3)n2)cc1,> 25,> 18.4,> 16.2,> 15.5,> 19.1,18.3,8.98,10.8,9.58,6.71,6.44,8.34,5.91,4.36
COc1cc2c3c(n(CCCNCCCNCCCNCCCN)c(=O)c2cc1OC)-c1cc2c(cc1C3=O)OCO2,12.1,8.42,4.03,3.18,2.57,58,13.9,3.14,2.78,1.73,1.45,0.369,4.34,2.18
CC(=O)N1c2ccccc2NC2=C(C(=O)N(Cc3ccccc3)C2(C)C)C1c1ccco1 (stereo unspecified),> 7.06,> 21.9,> 16.4,0.859,> 25,> 25,> 25,0.727,0.976,0.579,0.277,0.786,> 6.37,0.58
Cc1nc(CN2CCCCC2)c(O)c(=O)[nH]1,> 100,> 100,> 100,> 100,> 100,> 100,> 100,–,–,–,–,–,–,–

# Reference: PubChem BioAssay (NCI)
